“Also recorded” adds a separate entry of the source. Where two headings read alike, the source gives them in different places.
Experiments:
[1] = test system: PC12 cells; test: cells; details: Rattus norvegicus, PC-12, 1 h, read-out: [^3 H]-Dopamine Uptake (PC12)
Procedure: The effects of various pharmacologic agents were tested to determine whether the properties of the protein encoded by the mpp^res cDNA corresponded with those expected for the chromaffin granule amine transport protein. […] The cells were pre-incubated in Krebs-Ringer buffer containing 1 μM pargyline and the dose of the drug indicated for 15 minutes. […] Values were determined from three separate wells and the mean was expressed as percent of control uptake±standard deviation.

[2] = test system: vesicular amine transport protein; details: cited from earlier work
[3] = test system: amines and tyrosine hydroxylase; details: cited from earlier work
[4] = test system: MPP^+ -resistant CHO cells; test: MTT cytotoxicity assay in MPP+-resistant transfected CHO cells; format: cell-based, Chinese hamster; details: 1 μM reserpine, MPP+-resistant CHO cells
Procedure: (§1) Differential susceptibility to the respiratory complex I inhibitors MPP^+ and rotenone was shown by measuring toxicity by measuring general cell dehydrogenase activity with reduction of a tetrazolium dye (MTT) in a spectrophotometric plate assay as described by Hansen et al., J. Immunol. Methods 119:203-210 (1989). Briefly, a stock solution of MTT (3,(4,5-dimethylthiazol-2-yl)2,5-diphenyltetrazolium bromide) was dissolved at a concentration of 5 mg/ml in sterile phosphate buffered saline at room temperature. To each well was added 25 μl of the stock solution. After two hours of incubation at 37° C., 100 μl of extraction buffer (20% w/v of SDS in a solution of 50% each dimethylformamide and demineralized water with the pH adjusted to 4.7 with acetic acid and HCl). After an overnight incubation at 37° C., the optical densities at 570 nm were measured using a multiscanner, employing the extraction buffer as the blank. This assay was carried out in triplicate on 96-well plates (NUNC, Denmark). MPP^+ and rotenone at the concentrations indicated in FIG. 6a and 6b, respectively, was added to wild-type and MPP^+ -resistant CHO cells at approximately 50% confluence, and toxicity was assayed after 2-3 days by measuring general cell dehydrogenase activity with the reduction of the tetrazolium dye MTT (3,(4,5-dimethylthiazol-2-yl)2,5-diphenyl-tetrazolium bromide). After addition of the dye at a final concentration of 1 mg/ml, the cells were incubated for two hours at 37° C. and the formazan product was solubilized in 10% sodium dodecyl sulfate (SDS). The plates were maintained at 37° C. for an additional twenty hours and the optical density was determined in an ELISA plate reader at a test wavelength of 570 nm, a reference wavelength of 630 nm and a calibration setting of 1.99. All determinations were performed in triplicate and expressed as the mean, with the error bars representing standard deviation (FIG. 6a and 6b).
To determine whether an alteration in the process of respiration was responsible for the resistance to MPP^+, the effects of other known respiratory inhibitors were examined. […] Thus, if the resistance were due to a change in the site of action, the transfected cells should also show resistance to rotenone. […] However, rotenone is considered to have its selected effect on respiration at relatively low doses, and an additional, less specific effect at higher doses.
Therefore, the toxicity of MPP^+ to transfected cells in the presence of 1 μM reserpine was examined.

[5] = target: T1, chromaffin granule amine transport protein (Rattus norvegicus, UniProt Q01818); test: cell-based; format: cell-based
T1 sequence (Q01818 1-521): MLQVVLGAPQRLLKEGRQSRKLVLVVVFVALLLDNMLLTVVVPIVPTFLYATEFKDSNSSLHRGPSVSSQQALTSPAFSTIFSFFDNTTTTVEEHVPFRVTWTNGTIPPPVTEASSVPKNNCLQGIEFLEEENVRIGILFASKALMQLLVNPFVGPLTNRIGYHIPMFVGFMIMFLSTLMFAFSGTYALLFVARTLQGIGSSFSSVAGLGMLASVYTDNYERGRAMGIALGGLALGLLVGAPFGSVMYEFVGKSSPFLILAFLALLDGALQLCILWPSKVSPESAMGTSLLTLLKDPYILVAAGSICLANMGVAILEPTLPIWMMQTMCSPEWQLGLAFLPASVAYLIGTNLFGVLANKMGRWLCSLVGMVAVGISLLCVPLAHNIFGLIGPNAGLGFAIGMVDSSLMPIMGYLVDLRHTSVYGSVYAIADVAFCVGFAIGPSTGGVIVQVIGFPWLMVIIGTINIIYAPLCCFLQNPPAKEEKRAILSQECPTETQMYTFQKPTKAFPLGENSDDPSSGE
Procedure: Uptake and cellular compartmentalization of loaded dopamine were performed by growing cells on poly-lysine-coated glass coverslips. […] The cells were then washed three times in 0.1M sodium phosphate, pH 7.4, and incubated at 4° C. in 2% glyoxylic acid/0.5 mg% MgCl2, pH 4.9-5.0 for three minutes as described by de la Torre, J. Neurosci. Meth. 3:1-5 (1980). Briefly, excess solution is wiped off the bottom and edges of the slide using absorbent paper, taking care not to touch the section. The coverslips were then drained thoroughly, dried in air at 45° C. heated to 80° C. for five minutes, inverted over mineral oil on glass slides and examined under fluorescence using the appropriate filters as described by Knigge et al., Brain Res. 120:393-405 (1977). Briefly, the preparations were infiltrated with warm immersion oil and examined in a Leitz MPV2 microspectrofluorometer equipped with Schoffel excitation and emission grating monochromators, photomultipliers, and ratio computing circuitry. Cells were scanned with either monochromatic light (370 nm) or narrow band excitation (S405, BG3) light for the purpose of identifying fluorescence within cells. Ploem illumination was used in combination with a X 63 or X 100 oil immersion objective.
Dopamine-loaded fluorescence was carried out as described in Example 1. […] Glyoxylic-acid-induced fluorescence was used to determine the intracellular distribution as described above in Example 1. The procedures were the same as described in Example 1 however a pure cDNA clone encoding the vesicle membrane transport protein, selected in the presence of MPP^+, obtained as described herein, was used rather than the primary transformant. […]
The effects of various pharmacologic agents were tested to determine whether the properties of the protein encoded by the mpp^res cDNA corresponded with those expected for the chromaffin granule amine transport protein. […] The cells were pre-incubated in Krebs-Ringer buffer containing 1 μM pargyline and the dose of the drug indicated for 15 minutes. 25 nM [^3 H]-dopamine was then added in the same buffer and after incubation at 37° C. for one hour, the cells were washed in cold Krebs-Ringer buffer, lysed and counted in Ecolite (ICN) as described by Greene and Rein, Brain Res. 129:247-263 (1978). Values were determined from three separate wells and the mean was expressed as percent of control uptake±standard deviation. […] The dose required to inhibit maximal uptake by 50%, Ki, was estimated from the fluorescence data using a range of concentrations for each agent.

[6] = test system: wild-type CHO cells; test: MTT cytotoxicity assay in wild-type CHO cells; format: cell-based, Chinese hamster; details: wild-type CHO, lower MPP+ concentrations
Procedure: as §1

In the case of `COC(=O)[C@H]1[C@H]2C[C@@H]3c4[nH]c5cc(OC)ccc5c4CCN3C[C@H]2C[C@@H](OC(=O)c2cc(OC)c(OC)c(OC)c2)[C@@H]1OC` [reserpine], the activity at 1 µM [1] is given as 23 ± 2%, the “inhibition of vesicular amine transport” value [2] is given as “inhibits” and the “inhibition of vesicular amine transport” value ([2]; listed as Reserpine) is given as “inhibit this transport activity”. For the same molecule, the “potentiation of amine depletion and reduction in tyrosine hydroxylase by MPP+” value [3] was “can potentiate the depletion of amines and reduction in tyrosine hydroxylase by MPP^+”, the “reversal of MPP+ resistance” value [4] was “Dramatic reversion to wild-type CHO sensitivity” and the “inhibition of vesicular dopamine uptake in the fluorescence assay” value ([5]; 50 nM) was “inhibit vesicular dopamine uptake completely”. For the same molecule, the “perinuclear and particulate cytoplasmic dopamine staining of MPP+-resistant CHO cells” value ([5]; 1 μM) was “inhibited”, the “Dopamine Fluorescence (mpp^res CHO)” value ([5]; agent 1 μM, untreated control ++++, 12 hour dopamine loading) was 0 and the Ki ([5]; dose required to inhibit maximal uptake by 50%, estimated from fluorescence data, read-out: Ki (est)) was 25 nM. The “pattern of catecholamine accumulation in the MPP+-resistant transfectant” value ([5]; reserpine concentration not stated) was “reversion to the wild-type pattern of catecholamine accumulation; also recorded: reversed” and the “effect on MPP+ toxicity in wild-type cells” value [6] was “very little reproducible effect”.

— US5688936A, “Vesicle membrane transport proteins” (priority 1993, dated 1997)
